US10369158B2, “Pharmaceutical packaging for estriol therapy” (The Regents of the University of California, priority 2014, dated 2019)

Tests used:
Type in all cases: in vivo, human
[1] = tested on: multiple sclerosis; test: Expanded Disability Status Scale (EDSS)
Text: (§1) Patients also underwent mammograms before and after the study.
The Expanded Disability Status Scale (EDSS) is a standard composite disability score used in MS trials. Higher scores indicate worse disability. This composite covers a variety of disabilities (including ambulation, vision, cognition, coordination, etc.), but scoring is not linear, and the composite score is understood to be principally an indicator of the level of disability in ambulation.

[2] = Safety and tolerability in randomized, double-blind, placebo-controlled clinical trial (gynecological outcomes, mammograms)
Text: as §1
Baseline characteristics were similar in both patient groups.

[3] = tested on: multiple sclerosis; test: Paced Auditory Serial Addition Test (PASAT) cognitive disability assessment; conditions: month 12 to month 24
Text: as §1
Next it was shown that the improvement in PASAT cognitive test scores was sustained when subjects were followed for the entire 24 month period, p=0.02 (FIG. 3).

[4] = tested on: multiple sclerosis; test: Timed 25-foot walk test; conditions: between-group difference p=0.02
Text: as §1
Another clinical disability measure with treatment effects was the timed 25-foot walk test. This test measures how many seconds it takes to walk 25 feet, with higher scores indicating worse disability. […] This beneficial effect of estriol treatment on 25 foot walking times is consistent with the beneficial effect of estriol treatment on EDSS scores since the latter is weighted toward being an indicator of ambulation.

[5] = tested on: multiple sclerosis; test: Brain MRI gadolinium enhancing lesions; conditions: at month 12 compared to month 0 baseline, p=0.14
Text: as §1
Brain MRI is used extensively in MS as a surrogate marker for clinical effects. Brain white matter gadolinium enhancing lesions are a biomarker for relapses.

[6] = 24-month treatment, Copaxone with estriol or placebo

For “glatiramer acetate [Copaxone® plus placebo]”, the “Change in EDSS scores” value ([1]; 24 months (FIG. 4)) was “no change”, the “EDSS scores over 24 months, slope” value ([1]; FIG. 4, p=0.06 estriol group, p=0.90 placebo group) was −0.01 and the “Abnormal proliferation in uterine endometrial biopsies” value [2, 6] was “no”. For the same substance, the “Breast - Fibrocystic breast disease on clinical exam” value [2, 6] was 4 subjects, the “Uterine endometrial biopsies (exams)” value [2, 6] was 10 exams and the “Uterine endometrial thickness > 8 mm on ultrasound (subjects)” value [2, 6] was 27 subjects. The Mammograms ([2]; before and after the study) was “No breast”, the “Uterine fibroids on ultrasound” value ([2]; women with MS, 24-month treatment, Copaxone 20 mg/day with oral estriol 8 mg/day or placebo, norethindrone 0.7 mg/day for 14 days every three months) was 8 subjects and the “PASAT scores after 12 months to end of study” value [3] was “began to show improved PASAT scores”. The “Change of walk time in timed 25-foot walk test” value [4] was “significantly increased” and the “Reduction in number of subjects with brain MRI scans positive for enhancing lesions” value [5] was 22%.
